The values below are quoted from earlier work in US20090215766A1, “TETRACYCLIC INHIBITORS OF JANUS KINASES” (Incyte Corporation, priority 2004, published 2009).

The test system of data set [1] is NOD mouse model of autoimmune type 1 diabetes.
Data set [2] relates to myeloid dendritic cells (DCs). As to conditions: CD40-induced maturation of myeloid DCs.
Data set [3] deals with IL-6-dependent MM cell lines.

With `COc1cc2ncnc(Nc3ccc(O)cc3)c2cc1OC` [JANEX-1], the onset of diabetes result in data set [1] was “delayed the onset of diabetes”.

With `COc1cc2ncnc(Nc3ccc(O)c(Br)c3)c2cc1OC` [WHI-P-154], the “CD40-induced DC maturation effects (costimulatory molecule expression, IL-12 production, allogeneic stimulatory capacity)” value in data set [2] is listed as “prevented these effects”.

Regarding `N#C/C(=C\c1ccc(O)c(O)c1)C(=O)NCc1ccccc1` [tyrphostin AG490], in data set [3], the “ERK2 and STAT3 phosphorylation” value is recorded as “inhibited”; the JAK2 kinase activity result was “inhibited”; the apoptosis entry is on record as “induced”; the cell proliferation result is on record as “suppressed”.
